US12653190B2, “Heteroaryl-triazole compounds as pesticides” (Bayer Aktiengesellschaft, priority 2020, dated 2026)

Legend:
Format in all cases: in vivo
[1] = tested on: adult engorged female ticks (Rhipicephalus microplus); test: Rhipicephalus (Boophilus) microplus injection test; conditions: 168 h, egg deposition monitored after 7 days, read-out: efficacy (infertile eggs); for pest or weed control at 4 µg/tick: 4 μg/tick injected; for pest or weed control at 20 µg/tick: 20 μg/tick injected
Description: Rhipicephalus (Boophilus) microplus—Iniectiontest
(§1) • Solvent: dimethyl sulfoxide
To produce a suitable preparation of active compound, 10 mg of active compound are dissolved in 0.5 mL solvent, and the concentrate is diluted with solvent to the desired concentration.
Five adult engorged female ticks (Rhipicephalus microplus) are injected with 1 μL compound solution into the abdomen. The ticks are transferred into replica plates and incubated in a climate chamber.
After 7 days egg deposition of fertile eggs is monitored. Eggs where fertility is not visible are stored in a climate chamber till hatching after about 42 days. An efficacy of 100% means all eggs are infertile; 0% means all eggs are fertile.

[2] = tested on: adult unfed cat fleas (Ctenocephalides felis); test: Ctenocephalides felis oral test; conditions: 48 h, 100 ppm in cattle blood, after 2 days
Description: Ctenocephalides felis—Oral Test
as §1
To produce a suitable preparation of active compound, 10 mg of active compound are dissolved in 0.5 mL solvent, and the concentrate is diluted with cattle blood to the desired concentration.
Approximately 20 adult unfed cat fleas (Ctenocephalides felts) are placed in flea chambers. The blood chamber, sealed with parafilm on the bottom, are filled with cattle blood supplied with compound solution and placed on the gauze covered top of the flea chamber, so that the fleas are able to suck the blood. The blood chamber is heated to 37° C. whereas the flea chamber is kept at room temperature.
After 2 days mortality in % is determined. 100% means all the fleas have been killed; 0% means none of the fleas have been killed.

[3] = tested on: Rhipicephalus (Boophilus) microplus larvae (strain Parkhurst, resistant against synthetic pyrethroids); test: Rhipicephalus (Boophilus) microplus in-vitro contact test, larval cattle tick; conditions: 5 μg/cm^2 (=500 g/ha), after 48 hours, read-out: efficacy (larvae dead or moribund)
Description: Rhipicephalus (Boophilus) microplus—In-Vitro Contact Tests Larval Cattle Tick (Strain Parkhurst, Resistant Against Synthetic Pyrethroids)
9 mg compound is solved in 1 mL acetone and diluted with acetone to the desired concentration. 250 μL of the test solution is filled in 25 mL glass test tubes and homogeneously distributed on the inner walls by rotation and tilting on a shaking device (2 h at 30 rpm). With a compound concentration of 900 ppm, an inner surface of 44.7 cm^2 and a homogeneous distribution, a dose of 5 μg/cm^2 is achieved.
After the solvent has evaporated, each test tube is filled with 20-50 cattle tick larvae (Rhipicephalus microplus), closed with a perforated lid and incubated in a horizontal position at 85% relative humidity and 27° C. in an incubator. After 48 hours efficacy is determined. The larvae are patted on the ground of the tubes and negative geotactic behavior is recorded.
An efficacy of 100% means all larvae are dead or moribund; 0% means no larvae are dead or moribund.

[4] = tested on: larvae of the banded cucumber beetle (Diabrotica balteata); test: Diabrotica balteata spray test; conditions: 168 h, 100 g/ha (=32 μg/well), after 7 days, wheat seeds, read-out: efficacy (seedling growth)
Description: Diabrotica balteata—Spray Test
(§2) • Solvent: 78.0 parts by weight of acetone • 1.5 parts by weight of dimethylformamide • Emulsifier: alkylarylpolyglycol ether
(§3) To produce a suitable preparation of active compound, 1 part by weight of active compound is mixed with the stated amount of solvent, and the concentrate is diluted with water, containing an emulsifier concentration of 1000 ppm, to the desired concentration. Further test concentrations are prepared by dilution with emulsifier containing water.
Soaked wheat seeds (Triticum aestivum) are placed in a multiple well plate filled with agar and some water and are incubated for 1 day to germinate (5 seeds per well). The germinated wheat seeds are sprayed with a test solution containing the desired concentration of the active ingredient. Afterwards each unit is infected with 10-20 larvae of the banded cucumber beetle (Diabrotica balteata).
After 7 days efficacy in % is determined. 100% means all the seedlings have grown up like in the untreated, uninfected control; 0% means none of the seedlings have grown.

[5] = tested on: green peach aphid (Myzus persicae); test: Myzus persicae spray test; conditions: foliar, 120 h, after 5 days, Chinese cabbage leaf disks
Description: Myzus persicae—Spray Test
(§4) • Solvent: 78.0 parts by weight acetone • 1.5 parts by weight dimethylformamide • Emulsifier: alkylarylpolyglycol ether
as §3, with “solvents” for “solvent,”, “and” for “and the concentrate”
Chinese cabbage (Brassica pekinensis) leaf disks infected with all instars of the green peach aphid (Myzus persicae), are sprayed with a preparation of the active ingredient of the desired concentration.
After 5 days mortality in % is determined. 100% means all aphids have been killed and 0% means none of the aphids have been killed.

[6] = tested on: larvae of the southern green stink bug (Nezara viridula); test: Nezara viridula spray test; conditions: 96 h, after 4 days, barley plants
Description: Nezara viridula—Spray Test
as §2, §3
Barley plants (Hordeum vulgare) are sprayed with a test solution containing the desired concentration of the active ingredient and are infested with larvae of the southern green stink bug (Nezara viridula).
After 4 days mortality in % is determined. 100% means all the stink bugs have been killed; 0% means none of the stink bugs have been killed.

[7] = tested on: adult mosquitoes Aedes aegypti strain MONHEIM; test: Aedes aegypti test (AEDSAE surface treatment & contact assay); conditions: 24 hours after contact, read-out: efficacy (mortality); for mortality at 4 mg/m2: surface concentration 4 mg/m^2, 30 minutes exposure; for mortality at 20 mg/m2: surface concentration 20 mg/m^2, 30 minutes exposure
Description: Aedes aegypti Test (AEDSAE Surface Treatment & Contact Assay)
(§5) • Solvent: Aceton+2000 ppm rapeseed oil methyl ester (RME)
(§6) In order to produce a sufficient, active ingredient containing solution it is necessary to solve the test compound in the solvent-mix (acetone at 2 mg/ml/RME 2000 ppm). This solution is pipetted onto a glazed tile and after evaporation of the acetone, adult mosquitoes of the species Aedes aegypti strain MONHEIM are placed onto the dried surface. The exposure time is 30 minutes.
(§7) Mortality in percent (%) is determined 24 hours after contact of the insects to the treated surface. 100% mortality means that all tested insects are dead, whereas 0% means that no insect died.

[8] = tested on: adult mosquitoes Culex quinquefasciatus strain P00; test: Culex quinquefasciatus test (CULXFA surface treatment & contact assay); conditions: 24 hours after contact, read-out: efficacy (mortality); for mortality at 4 mg/m2: surface concentration 4 mg/m^2, 30 minutes exposure; for mortality at 20 mg/m2: surface concentration 20 mg/m^2, 30 minutes exposure
Description: Culex quinquefasciatus Test (CULXFA Surface Treatment & Contact Assay)
as §5
as §6, with “2 000” for “2000”, “Culex Quinquefasciatus” for “Aedes aegypti”, “P00” for “MONHEIM”, “minutes. Mortality in percent (%) is determined 24 hours after contact of the insects to the treated surface. 100% mortality means that all tested insects are dead, whereas 0% means that no insect died.” for “minutes.”

[9] = tested on: adult flies Musca domestica strain WHO-N; test: Musca domestica test (MUSCDO surface treatment & contact assay); conditions: 24 hours after contact, read-out: efficacy (mortality); for mortality at 4 mg/m2: surface concentration 4 mg/m^2, 30 minutes exposure; for mortality at 20 mg/m2: surface concentration 20 mg/m^2, 30 minutes exposure
Description: Musca domestica Test (MUSCDO Surface Treatment & Contact Assay)
as §5
as §6, with “flies” for “mosquitoes”, “Musca domestica” for “Aedes aegypti”, “WHO-N” for “MONHEIM”
as §7

[10] = tested on: fall armyworm larvae (Spodoptera frugiperda); test: Spodoptera frugiperda spray test; conditions: in Zea mays, 168 h
Description: Spodoptera frugiperda—Spray Test
as §4
as §3, with “solvents” for “solvent,”, “and” for “and the concentrate”
Maize (Zea mays) leaf sections are sprayed with a preparation of the active ingredient of the desired concentration. Once dry, the leaf sections are infested with fall armyworm larvae (Spodoptera frugiperda). After 7 days mortality in % is determined. 100% means all caterpillars have been killed and 0% means none of the caterpillars have been killed.

Row | Compound | pest or weed control at 5 µg/cm2, 5 µg/cm2 [3] | pest or weed control at 32 µg/disc, 100 g/ha [4] | mortality at 100 g/ha [5] | mortality at 500 g/ha [6] | mortality at 100 g/ha [10] | also measured
1 | C[C@H](NC(=O)c1cc(Br)cc(C=C(Cl)Cl)c1)c1ncnn1-c1ccc(C#N)cn1 [Example I-23] | – | – | – | – | – | pest or weed control at 4 µg/tick [1]: 100%; mortality at 100 ppm [2]: 100%
2 | C[C@H](NC(=O)c1cc(OC(F)(F)F)cc(C(C)(C)C#N)c1)c1ncnn1-c1ccc(C#N)cn1 [Example I-45] | 100% | 100% | 90% | 100% | – | mortality at 100 g/ha [6]: 100%; mortality at 4 mg/m2 [7]: 80 to 100%; mortality at 20 mg/m2 [7]: 80 to 100%; mortality at 4 mg/m2 [8]: 80 to 100%; mortality at 20 mg/m2 [8]: 80 to 100%; mortality at 4 mg/m2 [9]: 80 to 100%; mortality at 20 mg/m2 [9]: 80 to 100%
3 | CNC(=O)c1cnc(-n2ncnc2[C@H](C)NC(=O)c2cc(OC(F)(F)F)cc(C(C)(C)C#N)c2)s1 [Example I-74] | – | 100% | 100% | 100% | 100% | mortality at 100 g/ha [6]: 100%
4 | C[C@H](NC(=O)c1cc(OC(F)(F)F)cc(C(C)(C)C#N)c1)c1ncnn1-c1ncc(C#N)s1 [Example I-43, 3-(1-Cyano-1-methyl-ethyl)-N-[(1S)-1-[2-(5-cyanothiazol-2-yl)-1,2,4-triazol-3-yl]ethyl]-5-(trifluoromethoxy)benzamide] | – | 100% | 100% | 100% | 100% | mortality at 100 g/ha [6]: 100%; mortality at 4 mg/m2 [7]: 80 to 100%; mortality at 20 mg/m2 [7]: 80 to 100%; mortality at 4 mg/m2 [8]: 80 to 100%; mortality at 20 mg/m2 [8]: 80 to 100%; mortality at 4 mg/m2 [9]: 80 to 100%; mortality at 20 mg/m2 [9]: 80 to 100%
5 | C[C@H](NC(=O)c1cc(Cl)cc(C(C)(C)C#N)c1)c1ncnn1-c1ncc(C#N)s1 [Example I-37] | – | 100% | 90% | 100% | 100% | mortality at 20 mg/m2 [8]: 80 to 100%
6 | C[C@H](NC(=O)c1cc(OCC(Cl)=C(Cl)Cl)cc(C(F)(F)F)c1)c1ncnn1-c1ncc(C#N)s1 [Example I-28] | 100% | 100% | – | – | 100% | pest or weed control at 4 µg/tick [1]: 100%
7 | C[C@H](NC(=O)c1cc(OC(F)(F)F)cc(C(C)(C)C#N)c1)c1ncnn1-c1cnc(C#N)cn1 [Example I-56] | – | 100% | 90% | 100% | 100% | mortality at 100 g/ha [6]: 90%; mortality at 4 mg/m2 [7]: 80 to 100%; mortality at 20 mg/m2 [7]: 80 to 100%
8 | C[C@H](NC(=O)c1cc(CC#N)cc(OC(F)(F)F)c1)c1ncnn1-c1ncc(C#N)s1 [Example I-54] | 90% | – | – | – | 100% | –
9 | C[C@H](NC(=O)c1cc(OCC=C(Cl)Cl)cc(C(F)(F)F)c1)c1ncnn1-c1ccc(C#N)cn1 [Example I-26] | 100% | 100% | – | – | – | –
10 | CC(C)c1cc(C(=O)N[C@@H](C)c2ncnn2-c2ccc(C#N)cn2)cc(C(C)(C)C#N)c1 [Example I-48] | 100% | 100% | – | – | 83% | –
11 | Cc1nc([C@H](C)NC(=O)c2cc(Cl)cc(C(C)(C)C#N)c2)n(-c2ncc(C(=O)N(C)C)s2)n1 [Example I-40] | – | 80% | 90% | – | 100% | –
12 | C[C@H](NC(=O)c1cc(Cl)cc(Cn2cc(C(F)(F)F)cn2)c1)c1ncnn1-c1ccc(C#N)cn1 [Example I-10] | – | – | – | – | – | pest or weed control at 4 µg/tick [1]: 100%; pest or weed control at 20 µg/tick [1]: 100%; mortality at 100 ppm [2]: 100%
13 | C[C@H](NC(=O)c1cc(Cl)nc(C(C)(C)C#N)c1)c1ncnn1-c1ncc(C#N)s1 [Example I-71] | – | 100% | – | 100% | 100% | –
14 | C[C@H](NC(=O)c1cc(OC(F)(F)F)cc(C(C)(C)C#N)c1)c1ncnn1-c1ncc(C(=O)N(C)C)s1 [Example I-73] | – | 100% | 100% | 100% | 100% | –
15 | C[C@H](NC(=O)c1cc(Br)cc(C(F)(F)C2CC2)c1)c1ncnn1-c1ncc(C#N)s1 [Example I-53] | – | 100% | – | – | 100% | mortality at 20 mg/m2 [7]: 80 to 100%
16 | C[C@H](NC(=O)c1cc(Cl)cc(Oc2ccccc2)c1)c1ncnn1-c1ccc(C#N)cn1 [Example I-7] | 100% | – | – | – | – | pest or weed control at 4 µg/tick [1]: 100%; pest or weed control at 20 µg/tick [1]: 100%
17 | C[C@H](NC(=O)c1cc(Cl)cc(Oc2ccc(Cl)cc2)c1)c1ncnn1-c1ccc(C#N)cn1 [Example I-8] | – | – | – | – | – | pest or weed control at 4 µg/tick [1]: 80%; pest or weed control at 20 µg/tick [1]: 100%; mortality at 100 ppm [2]: 90%
18 | C[C@H](NC(=O)c1cc(OC2CC2)cc(OC(F)(F)F)c1)c1nc(C2CC2)nn1-c1ncc(C#N)s1 [Example I-65] | 100% | – | – | – | – | –
